In patent US20050228180A1, “Alpha, omega-dicarboximide derivatives as useful uro-selective a1a adrenoceptor blockers” (priority 2002, published 2005):
Structures can show the parent of a compound that is named as a salt.

Tests used:
α1D adrenoceptor (aorta) = target: T1, α1D adrenoceptor (aorta) (Rattus norvegicus, UniProt P23944); experiment: In vitro functional assay, isolated aorta, norepinephrine contraction; type: cell-based; conditions: for Kb: read-out: α Adrenoceptor Subtype (pKB) α1D (converted)
T1 construct: Isolated tissues were mounted in organ bath containing Krebs Henseleit buffer; from tissue; host or cells: isolated rat aorta
T1 sequence (P23944 1-561): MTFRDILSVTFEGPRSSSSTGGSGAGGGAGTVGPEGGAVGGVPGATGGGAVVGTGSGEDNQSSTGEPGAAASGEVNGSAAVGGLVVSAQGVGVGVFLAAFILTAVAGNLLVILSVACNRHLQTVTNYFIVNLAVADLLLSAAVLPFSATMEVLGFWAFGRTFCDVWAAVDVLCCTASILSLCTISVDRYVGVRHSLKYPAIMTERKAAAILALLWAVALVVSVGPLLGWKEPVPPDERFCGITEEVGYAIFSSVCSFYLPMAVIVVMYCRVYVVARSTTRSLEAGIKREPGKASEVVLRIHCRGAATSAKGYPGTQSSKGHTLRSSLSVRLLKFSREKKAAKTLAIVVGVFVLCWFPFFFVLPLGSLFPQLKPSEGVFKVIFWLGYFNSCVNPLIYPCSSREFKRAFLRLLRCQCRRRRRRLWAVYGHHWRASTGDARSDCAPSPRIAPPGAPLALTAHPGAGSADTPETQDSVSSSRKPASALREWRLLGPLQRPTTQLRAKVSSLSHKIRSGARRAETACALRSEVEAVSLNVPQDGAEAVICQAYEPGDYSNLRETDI
Excerpt: (§1) In order to study selectivity of action of these compounds towards different a-adrenoceptor subtypes, the ability of these compounds to antagonise (α1D) prostate (α1A) and spleen (α1B) was studied. Aorta and spleen tissues were isolated from urethane anaesthetized (1.5 g/kg) male wister rats. Isolated tissues were mounted in organ bath containing Krebs Henseleit buffer of the following composition (mM): NaCl 118; KCl 4.7; CaCl2 2.5; MgSO4 7H2O 1.2; NaHCO3 25; KH2PO4 1.2; glucose 11.5. Buffer was maintained at 37° C. and aereated with a mixture of 95% O2 and 5% CO2. A resting tension of 2 g (aorta) or 1 g (spleen and prostate) was applied to tissues. Contractile response was monitored using a force displacement transducer and recorded on chart recorders. Tissues were allowed to equilibrate for 2 hours. At the end of equilibration period, concentration response curves to norepinephrine (aorta) and phenylepinephrine (spleen and prostate) were obtained in the absence and presence of tested compound (at concentration of […]). Antagonist affinity was calculated and expressed as pKB values in Table II.

α1B adrenoceptor = target: T2, α1B adrenoceptor (Rattus norvegicus, UniProt P15823); experiment: Radioligand binding, [3H] prazosin displacement, rat liver membranes; conditions: read-out: Affinity (Ki) α1B (Rat Liver)
T2 construct: from tissue; host or cells: rat liver membranes
T2 sequence (P15823 1-515): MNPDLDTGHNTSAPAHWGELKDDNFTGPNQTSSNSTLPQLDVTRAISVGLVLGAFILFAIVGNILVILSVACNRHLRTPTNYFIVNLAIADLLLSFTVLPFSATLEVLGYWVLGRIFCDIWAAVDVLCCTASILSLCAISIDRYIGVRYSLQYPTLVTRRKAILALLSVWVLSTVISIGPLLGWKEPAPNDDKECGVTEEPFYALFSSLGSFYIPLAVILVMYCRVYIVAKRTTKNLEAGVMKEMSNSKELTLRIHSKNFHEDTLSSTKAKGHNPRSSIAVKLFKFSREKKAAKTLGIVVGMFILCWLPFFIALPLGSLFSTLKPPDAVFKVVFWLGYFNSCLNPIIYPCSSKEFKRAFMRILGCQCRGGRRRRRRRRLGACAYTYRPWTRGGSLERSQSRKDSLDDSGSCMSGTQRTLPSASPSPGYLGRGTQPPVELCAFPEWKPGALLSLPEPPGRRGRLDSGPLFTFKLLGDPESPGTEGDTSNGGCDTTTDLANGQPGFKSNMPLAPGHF
Method in brief: (§2)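 Displacement of [3H]prazosin measured by filtration and counting, with Ki from IC50 via Cheng–Prusoff and nonspecific binding set by 300 nM prazosin. Native rat submaxillary (α1A) or liver (α1B) membranes, 150-250 μg protein, 1 h at 24-25° C in Tris/EDTA pH 7.4.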

[1] = target: T3, α1A adrenoceptor (prostate) (Rattus norvegicus, UniProt P43140); experiment: In vitro functional assay, isolated prostate, phenylepinephrine contraction; type: cell-based; conditions: for Selectivity α1B/α1A / Selectivity α1D/α1A: functional, from pKB; for Kb: read-out: α Adrenoceptor Subtype (pKB) α1A (converted)
T3 construct: from tissue; host or cells: isolated prostate tissue
T3 sequence (P43140 1-466): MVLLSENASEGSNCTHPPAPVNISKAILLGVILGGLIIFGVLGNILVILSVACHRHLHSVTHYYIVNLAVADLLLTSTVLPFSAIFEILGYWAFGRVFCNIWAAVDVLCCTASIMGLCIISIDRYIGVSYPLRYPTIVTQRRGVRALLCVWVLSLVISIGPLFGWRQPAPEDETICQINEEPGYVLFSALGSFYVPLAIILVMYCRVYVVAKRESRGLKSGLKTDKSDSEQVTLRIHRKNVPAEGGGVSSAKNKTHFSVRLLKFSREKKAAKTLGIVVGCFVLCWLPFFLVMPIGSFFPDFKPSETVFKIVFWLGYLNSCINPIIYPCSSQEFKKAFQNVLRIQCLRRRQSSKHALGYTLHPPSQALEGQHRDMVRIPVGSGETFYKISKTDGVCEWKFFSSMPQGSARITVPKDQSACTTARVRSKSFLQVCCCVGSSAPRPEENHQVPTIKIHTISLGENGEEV
Excerpt: as §1

[2] = target: T4, α1B adrenoceptor (spleen) (Rattus norvegicus, UniProt P15823); experiment: In vitro functional assay, isolated spleen, phenylepinephrine contraction; type: cell-based; conditions: for Kb: read-out: α Adrenoceptor Subtype (pKB) α1B (converted)
T4 construct: Isolated tissues were mounted in organ bath containing Krebs Henseleit buffer; from tissue; host or cells: isolated rat spleen
T4 sequence (P15823 1-515): T2 sequence (P15823 1-515)
Excerpt: as §1

α1A adrenoceptor = target: T5, α1A adrenoceptor (Rattus norvegicus, UniProt P43140); experiment: Radioligand binding, [3H] prazosin displacement, rat submaxillary membranes; conditions: for Ki: [3H] prazosin displacement, rat submaxillary membranes, read-out: Affinity (Ki) α1A (Rat Submaxillary); for α1B/α1A: ratio of binding affinities, rat liver / rat submaxillary
T5 construct: from tissue; host or cells: rat submaxillary gland membranes
T5 sequence (P43140 1-466): T3 sequence (P43140 1-466)
Method in brief: as §2

[3] = rat prostate, phenylepinephrine

SMILES | Kb (α1D adrenoceptor (aorta)) | Ki (α1B adrenoceptor) | Selectivity α1B/α1A [1] | Selectivity α1D/α1A [1] | Kb [1, 3] | Kb [2] | Ki (α1A adrenoceptor) | α1B/α1A (α1A adrenoceptor) | α Adrenoceptor Subtype (pKB) α1D (α1D adrenoceptor (aorta)) | α Adrenoceptor Subtype (pKB) α1A [1, 3] | α Adrenoceptor Subtype (pKB) α1B [2]
CCOc1ccccc1[N+]1([O-])CC[N+]([O-])(CCCN2C(=O)C3CC=CCC3C2=O)CC1 (centres unmarked) [Compound No. 10, 2-[3-{4-(2-Ethoxyphenyl)piperazin-1-yl, 1,4-N,N-dioxide}propyl]-3a,4,7,7a-tetrahydro-1H-isoindole-1,3(2H)-dione] | 58.9 nM | > 1000 nM | 13 | 40 | 1.48 nM | 18.6 nM | > 1000 nM |  |  |  | 
CCOc1ccccc1N1CCN(CC(O)CN2C(=O)C3CC=CCC3C2=O)CC1 (centres unmarked) [Compound No. 11, 2-[3-{4-(2-Ethoxyphenyl)piperazin-1-yl}-2-hydroxypropyl]-3a,4,7,7a-tetrahydro-1H-isoindole-1,3-(2H)-dione hydrochloride] | 3.72 nM | 191 nM | 0.1 | 0.5 | 7.24 nM | 0.759 nM | 6.4 nM | 30 |  |  | 
CCOc1ccccc1N1CCN(CCCN2C(=O)C3CC(O)C(O)CC3C2=O)CC1 (centres unmarked) [Compound No. 12, 2-[3-{4-(2-Ethoxyphenyl)piperazin-1-yl}propyl]-5,6-dihydroxy-3a,4,5,6,7,7a-hexahydro-1H-isoindole-1,3(2H)-dione] | 6.92 nM | 118 nM | 60 | 4.2 | 1.66 nM | 100 nM | 1.7 nM | 69 |  |  | 
CC(C)Oc1ccccc1N1CCN(CCCN2C(=O)C3CC(O)C(O)CC3C2=O)CC1 (centres unmarked) [Compound No. 13, 2-[3-{4-(2-Isopropoxyphenyl)piperazin-1-yl}propyl]-5,6-dihydroxy-3a,4,5,6,7,7a-hexahydro-1H-isoindole-1,3(2H)-dione] | 2.29 nM | 85 nM | 17 | 0.7 | 3.24 nM | 55 nM | 0.36 nM | 236 |  |  | 
CCOc1ccccc1N1CCN(CCCN2C(=O)C3CC(O)C(Cl)CC3C2=O)CC1.Cl (centres unmarked) [Compound No. 17] |  |  | 347 | 3.9 |  |  |  | 50 | 9.07 | 9.54 | 7
CC(C)Oc1ccccc1N1CCN(CCCN2C(=O)C3CC4OC4CC3C2=O)CC1 (centres unmarked) [Compound No. 19, 2-[3-{4-(2-Isopropoxyphenyl)piperazin-1-yl}propyl]-5,6-epoxy-3a,4,5,6,7,7a-hexahydro-1H-isoindole-1,3(2H)-dione] | 2.69 nM | 104 nM | 87 | 3.4 | 0.794 nM | 69.2 nM | 0.23 nM | 452 |  |  | 
CC(C)Oc1ccccc1N1CCN(CCCN2C(=O)C3CCC(O)CC3C2=O)CC1 (centres unmarked) [Compound No. 20, 2-[3-{4-(2-Isopropoxyphenyl)piperazin-1-yl}propyl]-5-hydroxy-3a,4,5,6,7,7a-hexahydro-1H-isoindole-1,3(2H)-dione] | 1.07 nM | 92 nM | 240 | 2.5 | 0.427 nM | 102 nM | 0.28 nM | 328 |  |  | 
CC(C)Oc1ccc(O)cc1N1CCN(CCCN2C(=O)C3CC=CCC3C2=O)CC1.Cl (centres unmarked) [Compound No. 21, 2-[3-{4-(2-Isopropoxy-5-hydroxyphenyl)piperazin-1-yl}propyl]-3a,4,7,7a-tetrahydro-1H-isoindole-1,3(2H)-dione hydrochloride] | 24.5 nM | 643 nM | 15 | 5.24 | 4.68 nM | 70.8 nM | 3.4 nM | 189 |  |  | 
CC(C)Oc1cc([N+](=O)[O-])ccc1N1CCN(CCCN2C(=O)C3CC=CCC3C2=O)CC1 (centres unmarked) [Compound No. 25, 2-[3-{4-(2-Isopropoxy-4-nitrophenyl)piperazin-1-yllpropyl]-3a,4,7,7a-tetrahydro-1H-isoindole-1,3(2H)-dione hydrochloride] | 4.27 nM | 173 nM | 22 | 0.93 | 4.57 nM | 100 nM | 0.86 nM | 201 |  |  | 
CC(C)Oc1ccccc1N1CCN(CCCN2C(=O)C3CC(O)C(Cl)CC3C2=O)CC1.Cl (centres unmarked) [Compound No. 28, 2-[3-{4-(2-Isopropoxyphenyl)piperazin-1-yl}propyl]-5-chloro-6-hydroxy-3a,4,5,6,7,7a-hexahydro-1H-isoindole-1,3(2H)-dione hydrochloride] | 1.41 nM | 41 nM | 45 | 1.4 | 0.977 nM | 43.7 nM | 0.24 nM | 171 |  |  | 
CC(C)Oc1ccccc1N1CCN(CCCN2C(=O)C3CCCC(O)C3C2=O)CC1.Cl (centres unmarked) [Compound No. 60, 2-[3-{4-(2-Isopropoxyphenyl)piperazin-1-yl}-propyl]4-hydroxy-3a,4,5,6,7,7a-hexahydro-1H-isoindole-1,3(2H)-dione hydrochloride] | 6.46 nM | 142 nM |  | 18 | 0.363 nM |  | 1.2 nM | 118 |  |  | 
COc1ccccc1N1CCN(CC(O)CN2C(=O)C3CC=CCC3C2=O)CC1.Cl (centres unmarked) [compound 06, 2-[3-{4-(2-Methoxyphenyl)piperazin-1-yl}-2-hydroxypropyl]-3a,4,7,7a-tetrahydro-1H-isoindole-1,3(2H)-dione hydrochloride] | 3.72 nM | 263 nM |  | 0.56 | 6.61 nM |  | 38 nM | 7 |  |  | 
